Measured values as given in patent publication US8093273B2, “Flavanoids and isoflavanoids for the prevention and treatment of cardiovascular diseases” (Resverlogix Corp., priority 2004, dated 2012).
In brackets after ≈: the same amount, converted by molar mass. Where two headings read alike, the source gives them in different places.

What was measured:
human ApoA-I promoter [1] = experiment: ApoA-I promoter induction in HepG2 liver cells (pAI.474-Luc luciferase reporter); type: cell-based; settings: average values at 15 μM, 48 hours incubation
Method: This study determined whether compounds of the invention have an effect on ApoA-I promoter activity expression in HepG2 cells, a liver cell line. Cells were grown under conditions recommended by the ATCC and summarized by Wong.
The promoter region of the gene encoding human ApoA-I was isolated and ligated upstream the structure gene of firefly luciferase to construct a reporter plasmid (pAI.474-Luc). The reporter plasmid, along with pRSV-β-galactosidase (as a control for transfection efficiency), were co-transfected into HepG2 cells. The cells were then incubated in an MEM selection media containing 20% fetal calf serum supplemented with G418 (final concentration: 0.5 mg/mL, Gibco) to give established strains that stably express from the reporter gene. The strains were seeded to a 6-well culture plates and incubated for 48 hours at 37° C. under 5% carbon dioxide. Cells were starved for 24 hrs in MEM selection media containing 0.5% FBS. Then, a solution of the compounds of the invention in DMSO (or other appropriate solvent) was added to the wells at a final concentration of 0 to 100 μM in MEM selection media containing 0.5% FBS.
After further incubation for 48 hours, the cells were harvested and lysed using Reporter Lysis Buffer (PROMEGA E3971), and 50 μL of luciferase assay reagent (PROMEGA E4550 Luciferase Reporter 1000 assay system) were added to measure luciferase activity with a luminometer (Fluoroskan Ascent FL from Thermo electron Corporation). Luciferase activity was normalized to lysate protein concentrations, measured using Bradford Reagent (Biorad Protein Assay reagent Cat #500-0006).

human ApoA-I promoter [2] = experiment: Kinetics of ApoA-I promoter induction in Caco-2 cells transfected with pAI.474-Luc; type: cell-based; settings: time points from 4 to 72 hours
Method: Accordingly, the kinetics of induction of the ApoA-I promoter were assessed.
Caco-2 cells transfected with pAI.474-Luc were treated with compounds of the invention at selected time points varying from 4 to 72 hours. This construct pAI.474-Luc contained the human ApoA-I promoter fused to the reporter gene, firefly luciferase (Luc).
Further, maximal stimulation appeared following 48 hour exposure. […] Maximal stimulation appeared following 48 hour exposure to the compound.

hApoA-I transgenic mice = experiment: hApoA-I transgenic mice, oral gavage for 14 days; type: in vivo; settings: for change in vivo at 10 mg/kg: Mus musculus, po, 336 h, 10 mg/kg BID 14 days, relative to pretreatment, read-out: ApoA-I (% change)
Description: To test whether the efficacy of compounds of the invention observed in vitro extended to an in vivo model, transgenic mice carrying multiple copies of the human ApoA-I gene (C57BI/6-tgn(apoa1)1 rub, Jackson Laboratory, Bar Harbor, Me.) were exposed to representative compounds of the invention. The exogenous human ApoA-I gene in these mice enables them to express the human ApoA-I protein under the control of this promoter.
Seven to eight week old male mice, transgenic for human ApoA-I were housed five per cage (10″×20″×8″ with aspen chip bedding) with pelleted Rodent chow [Purina 5001] and water available at all times. After an acclimation period of 1 week, animals were individually identified by numbering on tail and weighed. Mice were pre bled via the retro-orbital plexus, and 150 μl of blood was collected in 1.5 ml Eppendorf tube containing 1 μl of heparin and chilled on ice. Plasma was collected after centrifuging the whole blood at 14000 rpm [TOMY high speed micro-refrigerated centrifuge NTX-150] for 10 minutes at 4° C. and frozen at −80° C. Plasma was analyzed for: human ApoA-I by a human ApoA-I enzyme-linked Immunoassay [Direct Sandwich ELISA Calbiochem Cat#178422, Calbiochem Cat#178452, lot #B9076, Calbiochem Cat #178470 conjugated to Horse Radish Peroxidase (Cedarlane Cat#80220)]; total cholesterol [Ponte scientific reagents: # C7509-STD, #L7580-18, # C7510]; and triglyceride [Pointe Scientific Reagents: # 7532-STD, # L7580-18, #7532]. All samples were measured in triplicates and expressed as mg/dl. Mice were grouped based on the above plasma parameters and having an average body weight of 25 gm.
Two days following pre-bleed, mice were dosed by oral gavage daily for 14 days using a 20 gauge, 11/2″ curved disposable feeding needle [Popper & Sons]; when BID, mice were gavaged morning and afternoon (8 am and 5 pm); when SID mice were gavaged in morning (8 am). Compounds were prepared each day in vehicle. Test article(s), a positive control fenofibrate, and vehicle were dosed at volume of 5 mL/kg of body weight as a suspension (0.1 mL/20 g mouse). Fenofibrate was obtained commercially [SIGMA #F 6020]. Mice weights were recorded on day 1, 4, 7, 10, 12, and 15. On day 15, mice were weighed and fasted for 4 hours, sacrificed by inhalation of CO2 and blood was obtained via cardiac puncture (0.7-1.0 ml). Plasma was collected and frozen at −80° C. Samples were assayed for ApoA-I, total cholesterol, triglyceride and HDL-C by HPLC [Polaris 200 with an auto sampler Prostar 410 from Varian on a Superose 6 10/30 column from Amersham]. Samples were sent for NMR analysis [LipoScience] to identify particle size and subclass for lipoproteins. During necropsy, liver, brown fat, and the whole of small and large intestines were collected, cleaned with cold PBS and frozen at −80° C. for further analysis of compound levels. Variation between studies, in ApoA-I changes, was observed. Therefore, a relative comparison between individual(s) in the study groups was used.
4′-hydroxyflavone (10 mg/kg of body weight), 4-(4-oxo-4H-chromen-2-yl)phenyl nicotinate (Example 71) (10 mg/kg of body weight) and fenofibrate (100 mg/kg of body weight) were BID administered to hApoA-I transgenic mice daily for fourteen days by oral gavage in 0.5% Methylcellulose (w/v)/1% Tween 80 (w/v). Plasma was assayed for ApoA-I (FIG. 3A), HDL cholesterol and total cholesterol (FIG. 3B) and percent weight gain (FIG. 3C).
4′-hydroxyflavone (3 mg/kg of body weight), 4′-hydroxyflavone (10 mg/kg of body weight), 4′-hydroxyflavone (30 mg/kg of body weight), 2-(4-Hydroxy-phenyl)-pyrano[2,3-b]pyridin-4-one (10 mg/kg of body weight), and fenofibrate (100 mg/kg of body weight) were BID administered to hApoA-I transgenic mice daily for fourteen days by oral gavage in 0.5% methylcellulose (w/v)/1% Tween 80 (w/v). In this experiment plasma was assayed for ApoA-I. […]

[3] = Solubility analysis in PBS (HPLC-UV); type: physicochemical; settings: aqueous buffer, thermodynamic from solid; 1 mg in 1 mL PBS, sonicated 1 hour, 25° C. for 3 hrs
Method: Samples were then centrifuged at 14,000 rpm for 6 minutes at room temperature. The supernatant was diluted with acetonitrile and was removed for analysis. Analysis was performed using HPLC-UV with 7-point standard curve to determine the concentration. The average concentration calculated is regarded as the solubility (μM).

Caco-2 permeability = type: in vitro ADME, human; settings: human, Caco-2
Description: (§1) The Caco-2 cell drug transport model is widely used for screening compounds in drug discovery to assess intestinal transport and predict absorption rates.

human ApoA-I promoter [4] = experiment: ApoA-I promoter induction in Caco-2 intestinal cells (pAI.474-Luc luciferase reporter); type: cell-based; settings: Caco-2 cells, 15 μM, 48 hours incubation, luciferase activity vs control samples
How it was run: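 Caco-2 cells stably carrying the human ApoA-I promoter–firefly luciferase construct (pAI.474-Luc) were starved 24 h in 0.5% FBS medium, then exposed to compound at 0 to 100 μM final for 48 h at 37° C. Luciferase activity in lysates was normalized to Bradford protein and compared with solvent-only and untreated controls.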

Caco-2 cells = experiment: Caco-2 permeability; type: in vitro ADME, human; settings: in vitro Caco-2 intestinal transport model
Description: as §1

ApoA-I protein = ApoA-I protein expression in HepG2 cells (ELISA of conditioned media); type: cell-based, human; settings: 7.5 μM; for ApoA-I content in the medium (ELISA): 6 and 24 hours, vs untreated cells and cells treated with solvent; for time after addition of compound at which ApoA-I levels in the medium start to increase: time course 0, 6, 24 hours
Method: This study confirmed that compounds of the invention have an effect on ApoA-I protein secretion in HepG2 (liver) cells by measuring whether stimulation of transcriptional activity of the endogenous ApoA-I promoter in the HepG2 cells increased the abundance and secretion of ApoA-I protein.
The HepG2 cell line was obtained from the ATCC and cultured in MEM media supplemented with 10% FBS (Gibco), with 1 mM sodium pyruvate, 0.1 mM MEM non-essential amino acid, 2 mM L-glutamine, 100 U/ml penicillin, 100 μg/ml streptomycin and 5 μg/ml plasmocin. Cells were maintained at 37° C. in an atmosphere of 5% CO2 Cells were grown to 85% confluency prior to initiating the experiment.
Cells were plated and allowed to adhere overnight in a phenol red-free DMEM containing 10% of Charcoal/Dextran treated FBS (Hyclone), with 1 mM sodium pyruvate, 0.1 mM MEM non-essential amino acid, 2 mM L-glutamine, 100 U/ml penicillin, 100 μg/ml streptomycin and 5 μg/ml plasmocin. The medium was removed, and cells were washed in 1×PBS. Cells were then starved in phenol red-free DMEM (serum free) for a period of 24 hours. Cells were then mock treated (untreated, DMSO), or treated with compound of the invention diluted in phenol red-free DMEM (serum free) media at a concentration of 7.5 μM. Cells and media were harvested at 0, 6 and 24 hours following compound treatment.
Medium was removed from cells at the desired times and applied to a solid phase capture sandwich in an ELISA assay according to manufacturer's instructions (Total human Apolipoprotein ELISA Assay-Alercheck).

[5] = subjects with low HDL-C; Rubins et al. 1999; cited from earlier work
[6] = Table 6 fourth group, Control 3 1.11

solubility at 3 h [3] [µM]	Papp (Caco-2 permeability) [×10⁻⁶ cm/s]	melting point [°C]	SMILES	ApoA-I Promoter Induction (human ApoA-I promoter [4])	further results
5.04 (≈ 1.2 µg/mL)	4.31		O=c1cc(-c2ccc(O)cc2)oc2ccccc12 [4′-hydroxyflavone, reference compound]		ApoA-I Promoter Induction (human ApoA-I promoter [1]): increased; exposure time of maximal stimulation of ApoA-I promoter activity (human ApoA-I promoter [2]): 48 h; plasma ApoA-I, net % change over vehicle (hApoA-I transgenic mice; Experiment A, 10 mg/kg BID oral gavage, 14 days, 0.5% methylcellulose/1% Tween 80): 32.44%; HDL cholesterol, net % change (hApoA-I transgenic mice; Experiment A, 10 mg/kg BID oral gavage, two weeks, NMR lipoprotein profile): 12.6%; liver weight gain normalized to body weight, compared to vehicle (hApoA-I transgenic mice; Experiment A, 10 mg/kg BID, day 15, male mice): minor changes; change in ApoA-I over vehicle (hApoA-I transgenic mice; Experiment B, 3 and 30 mpk BID oral gavage, 14 days): lack of statistically significant change; plasma ApoA-I, net % change over vehicle (hApoA-I transgenic mice; Experiment B, 10 mpk BID oral gavage, two weeks): 31.24%
			O=c1cc(-c2ccc(O)cc2)oc2cc(O)cc(O)c12 [5,7-Dihydroxy-2-(4-hydroxy-phenyl)-chromen-4-one, reference compound]	increased	exposure time of maximal stimulation of ApoA-I promoter activity (human ApoA-I promoter [2]): 48 h
			O=c1cc(-c2ccc(O)cc2)oc2cc(O)cc(O)c12 [5,7-dihydroxy-2-(4-hydroxyphenyl)-4H-chomen-4-one] [reference compound]		ApoA-I Promoter Induction (human ApoA-I promoter [1]): increased; % Transported Paap (Caco-2 cells): 1.5 ×10⁻⁶ cm/s
		241 to 242	Cc1c(-c2ccc(O)cc2)oc2ccccc2c1=O [Example 24, 2-(4-hydroxyphenyl)-3-methyl-4H-chromen-4-one]		ApoA-I content in the medium (ELISA) (ApoA-I protein): increased significantly; time after addition of compound at which ApoA-I levels in the medium start to increase (ApoA-I protein): ~6 h
194 (≈ 50 µg/mL)	2.06	267 to 268	O=c1cc(-c2ccc(O)c(F)c2)oc2ncccc12 [Example 37, 2-(3-fluoro-4-hydroxyphenyl)pyrano[2,3-b]pyridine-4-one]	increased	change in vivo at 10 mg/kg (hApoA-I transgenic mice; Table 6 second group, Control 1 3.42): 14.4%
31.6 (≈ 7.56 µg/mL)	1.21	306 to 308	O=c1cc(-c2ccc(O)cc2)oc2ccncc12 [Example 39, 2-(4-hydroxyphenyl)-4H-pyrano[3,2-c]pyridine-4-one]	increased	change in vivo at 10 mg/kg (hApoA-I transgenic mice; [6]): 11.2%
52.6 (≈ 16.7 µg/mL)	0.959	267 to 272	O=c1cc(-c2ccc(O)c(Br)c2)oc2ncccc12 [Example 42, 2-(3-bromo-4-hydroxyphenyl)-4H-pyrano[2,3-b]pyridin-4-one]	increased	
		269 to 270	COc1ccc(-c2cc(=O)c3cccnc3o2)cc1 [Example 44, 2-(4-methoxyphenyl)-4H-pyrano[2,3-b]pyridine-4-one]	increased	ApoA-I content in the medium (ELISA) (ApoA-I protein): increased significantly; time after addition of compound at which ApoA-I levels in the medium start to increase (ApoA-I protein): ~6 h
44.9 (≈ 10.7 µg/mL)	1.76	239 to 241	O=c1[nH]c(-c2ccc(O)cc2)cc2ccccc12 [Example 53, 3-(4-hydroxyphenyl)-2H-isoquinolin-1-one]	increased	ApoA-I Promoter Induction (human ApoA-I promoter [1]): increased; change in vivo at 10 mg/kg (hApoA-I transgenic mice; [6]): 13.2%
	5.34	219 to 221	Oc1ccc(-c2cc3ncccc3cn2)cc1 [Example 57, 4-(1,6-naphthyridin-7-yl)phenol]	increased	ApoA-I content in the medium (ELISA) (ApoA-I protein): increased significantly; time after addition of compound at which ApoA-I levels in the medium start to increase (ApoA-I protein): ~6 h; change in vivo at 10 mg/kg (hApoA-I transgenic mice; [6]): 9.49%
			Cc1ccc(C)c(OCCCC(C)(C)C(=O)O)c1 [gemfibrozil]		increase in the HDL-C level [5]: 6%; reduction of the CHD risk [5]: 22%
